Reference: PubChem BioAssay (NCI)
Values joined by “and” are separate entries in the source; they are usually repeats but may differ in a detail not shown here. Equal values may be shown once.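 Five concentrations, 48 hours, 96-well plates. GI50 is the concentration that inhibits growth by half. TGI is the concentration that stops growth completely.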

Key:
Test in all cases: growth of human tumour cells (NCI), 48 h
EKVX NSCLC = system: EKVX NSCLC
TK-10 renal = system: TK-10 renal
HL-60(TB) leukemia = system: HL-60(TB) leukemia
NCI-H23 lung = system: NCI-H23 lung
IGROV1 ovarian = system: IGROV1 ovarian
COLO 205 colon = system: COLO 205 colon
RPMI-8226 leukemia = system: RPMI-8226 leukemia
NCI-H522 lung = system: NCI-H522 lung
SNB-19 CNS = system: SNB-19 CNS
LOX IMVI melanoma = system: LOX IMVI melanoma

SMILES	GI50 (EKVX NSCLC)	TGI (EKVX NSCLC)	GI50 (TK-10 renal)	TGI (TK-10 renal)	GI50 (HL-60(TB) leukemia) [µM]	TGI (HL-60(TB) leukemia) [µM]	GI50 (NCI-H23 lung)	TGI (NCI-H23 lung) [µM]	GI50 (IGROV1 ovarian)	TGI (IGROV1 ovarian)	GI50 (COLO 205 colon)	TGI (COLO 205 colon)	GI50 (RPMI-8226 leukemia)	TGI (RPMI-8226 leukemia)	GI50 (NCI-H522 lung)	TGI (NCI-H522 lung)	GI50 (SNB-19 CNS)	TGI (SNB-19 CNS)	GI50 (LOX IMVI melanoma)	TGI (LOX IMVI melanoma)
O=C1/C(=C/c2cccc([N+](=O)[O-])c2)COc2ccc(O)c(O)c21	1.9 µM	4.1 µM	1.7 µM	3.21 µM	2.29	7.14	1.75 µM	3.95	1.02 µM	2.97 µM	1.79 µM	3.74 µM	0.301 µM	0.93 µM	0.281 µM	1.36 µM	1.55 µM	2.98 µM	0.499 µM	1.86 µM
CN(C)/[N+]([O-])=N/Oc1cc(Nc2cccc(C(=O)O)c2)c([N+](=O)[O-])cc1[N+](=O)[O-]	> 100 µM	> 100 µM	> 100 µM	> 100 µM	52.2	> 100	69.5 µM	> 100	41.1 µM	> 100 µM	> 100 µM	> 100 µM	> 100 µM	> 100 µM	69.3 µM	> 100 µM	53.6 µM	> 100 µM	38.5 µM	> 100 µM
COc1cc(/C=C(/C)[N+](=O)[O-])ccc1O	6.55 µM and 2.84 µM	18.7 µM and 14.6 µM	1.97 µM and 1.48 µM	3.57 µM and 2.82 µM	2.75	7.01	2.05 µM and 2.09 µM	5.23	2.89 µM and 1.57 µM	8.54 µM and 5.14 µM	1.99 µM and 1.45 µM	3.99 µM and 2.85 µM	0.737 µM and 1.73 µM	2.53 µM and 4.25 µM	0.46 µM and 0.282 µM	1.4 µM and 1.09 µM	4.55 µM and 5.02 µM	16.2 µM and 17.5 µM	1.59 µM and 1.58 µM	3.27 µM and 3 µM
Oc1c(CN2CCC(N3CCOCC3)CC2)cc(Cc2cc(CN3CCC(N4CCOCC4)CC3)c(O)c3ncccc23)c2cccnc12	0.737 µM	> 100 µM	1.12 µM	16.7 µM	0.789	3.71	2.07 µM	> 100	0.61 µM	48.2 µM	0.596 µM	10.6 µM	3.77 µM	> 100 µM	2.53 µM	9.95 µM	0.67 µM	> 100 µM	0.466 µM	4.54 µM
C[Si](C)(C)C#CCO[Si](C)(C)C		> 100 µM		> 100 µM		> 61		> 100		36.8 µM		> 100 µM		> 79.8 µM		29.9 µM		> 100 µM		19.9 µM
O=C1C2C(C(=O)N1O)N(Cc1ccccc1)C(=O)N2Cc1ccccc1 (configuration not stated)		> 100 µM		> 100 µM		> 100		> 100		> 100 µM		> 100 µM		> 100 µM		> 100 µM		> 100 µM		> 100 µM
CC1=CC=NN2C(=O)[C@H](C)C2C1 (some centres not stated)		> 100 µM		> 100 µM		> 100		> 100		> 100 µM		> 100 µM		> 100 µM		> 100 µM		> 100 µM		> 100 µM
Oc1ccc2ccccc2c1C=NCCCN=Cc1c(O)ccc2ccccc12	17.3 µM	> 100 µM	24.4 µM	> 100 µM	24.1	> 100	3.13 µM	13	28.1 µM	> 100 µM	15.9 µM	31.1 µM	4.11 µM	31.1 µM	4.91 µM	41.5 µM	14.7 µM	> 100 µM	6.89 µM	19.4 µM
CCNC(=O)C[C@@H]1N=C(c2ccc(Cl)cc2)c2cc(OC)ccc2-n2c(C)nnc21	> 100 µM	> 100 µM	0.645 µM	> 53.8 µM	0.275	38.1	13.5 µM	> 100	12.2 µM	> 100 µM	0.994 µM	> 100 µM	0.367 µM	5.74 µM	2.08 µM	> 100 µM	5.11 µM	> 100 µM	0.844 µM	> 100 µM
C=C1C(=O)O[C@@H]2C[C@@H]1CC[C@]1(C)O[C@H]1CC[C@@]1(C)O[C@@H]1CC[C@@]2(C)O	59.8 µM	> 100 µM	39.4 µM	> 100 µM	15.2	46.5			24.3 µM	> 100 µM	16.4 µM	34.2 µM	12.4 µM	42.7 µM	19.1 µM	46.2 µM	68.6 µM	> 100 µM	28.7 µM	80.8 µM
CN/N=C(/Cc1occc(=O)c1O)C(=O)Nc1ccc(C)c(C)c1		> 100 µM		> 100 µM		> 100		> 100		> 100 µM		> 100 µM		> 100 µM		> 100 µM		> 100 µM		> 100 µM
CC(C)C(C(=O)O)N(CC1(O)OCC(O)C(O)C1O)N=O (configuration not stated)		> 100 µM		> 100 µM		> 100		> 100		> 100 µM		> 100 µM		> 100 µM		> 100 µM				> 100 µM
Cc1ccc(S(=O)(=O)N/N=C(\CCN2CCCC2)CC(c2ccccc2)c2c(O)c3ccccc3oc2=O)cc1 (configuration not stated)		> 100 µM		> 100 µM		> 100		> 100		> 100 µM				> 100 µM		> 100 µM		> 100 µM		> 100 µM
OCCN(CCO)N=Nc1ccc(-c2nc3ccccc3[nH]2)cc1	17.1 µM	37.5 µM	36.1 µM	> 100 µM	10.8	32.1			87.4 µM	> 100 µM	22.9 µM	70.4 µM	21.3 µM	52.4 µM	50.2 µM	> 100 µM	> 100 µM	> 100 µM	12.5 µM	25.5 µM
O=C1NC(=O)C(C(=O)C(=O)Nc2ccc(Br)cc2)C(=O)N1		> 100 µM				> 100		> 100		> 100 µM		> 100 µM		> 100 µM		> 100 µM		> 100 µM		> 100 µM
CCNc1nnc(CSc2nc(-c3ccccc3)c(-c3ccccc3)[nH]2)s1		44.4 µM		56.5 µM		37		65.3				51.2 µM		54.9 µM		39.7 µM		34 µM		31.1 µM
